According to patent US20260014184A1, “ADENOSINE DERIVATIVES FOR USE IN THE TREATMENT OF NEURODEGENERATIVE DISORDERS AND CANCER” (UNIVERSITY COLLEGE CARDIFF CONSULTANTS LIMITED, priority 2022, published 2026):

Tests used:
[1] = target: T1, PINK1 (Homo sapiens, UniProt Q9BXM7); test: PINK1 activation in cells judged by parkin Ser65 phosphorylation (parkin-transfected HeLa cells); assay type: cell-based; settings: 50 μM, 1 h
T1 construct: HeLa cells, which express PINK1 endogenously; endogenous in cells; host or cells: HeLa cells transiently transfected with parkin
T1 sequence (Q9BXM7 78-581): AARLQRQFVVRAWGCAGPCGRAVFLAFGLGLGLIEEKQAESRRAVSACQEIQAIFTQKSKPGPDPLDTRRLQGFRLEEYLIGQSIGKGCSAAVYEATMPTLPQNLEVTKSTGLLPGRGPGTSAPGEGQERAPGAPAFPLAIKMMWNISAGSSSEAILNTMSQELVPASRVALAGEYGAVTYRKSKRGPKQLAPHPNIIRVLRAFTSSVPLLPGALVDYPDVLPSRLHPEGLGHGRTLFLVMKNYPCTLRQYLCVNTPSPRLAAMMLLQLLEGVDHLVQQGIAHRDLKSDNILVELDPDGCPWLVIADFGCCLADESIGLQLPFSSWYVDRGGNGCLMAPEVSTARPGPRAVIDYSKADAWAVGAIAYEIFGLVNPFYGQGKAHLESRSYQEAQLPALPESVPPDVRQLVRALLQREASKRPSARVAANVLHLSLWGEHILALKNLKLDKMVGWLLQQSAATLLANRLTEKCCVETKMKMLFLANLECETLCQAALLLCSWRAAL
Procedure: Both HeLa and parkin-overexpressed HeLa cells were maintained in DMEM high glucose (Gibco), 10% FBS (Sigma-Aldrich) at 37° C. with 5% CO2. For experiments, cells were counted and seeded into a range of culture plates, depending on the experiment, cell counting was done using the Cellometer Auto T4 with TrypanBlue (Gibco). […] Alternatively, HeLa cells were seeded in well plates and then transfected with […] of parkin cDNA using the PEI method once the plated cells reached 60% confluency. After 6 hours, the media was changed. Sub-culturing was done when the cells reached ˜90% confluency.
Cell culture with 70-80% confluency was lysed as follows: cells were washed with Phosphate Buffer Saline (PBS) (Sigma). 150 μl of lysis buffer was used on each well containing either: • 50 mM Tris-HCl pH 7.5, 1 mM EDTA, 1 mM EGTA, 0.27 M sucrose, 1 mM Na3VO4, 50 mM NaF, 5 mM Na pyrophosphate and fresh 1 mM benzamidine, 1% NP-40 and […]; or • 50 mM Tris-HCl pH 7.5, 1 mM EDTA, 1 mM EGTA, 10 mM Na β-glycerophosphate, 0.27 M sucrose, 1 mM Na3VO4, 50 mM NaF, 10 mM Na pyrophosphate with fresh 1 mM benzamidine, 1% Triton X-100, complete EDTA-free Protease Inhibitor, Phosphatase inhibitor cocktail 3 and 100 μM of 2-chloroacetamide.
The cells were scrapped and transferred to the microtube and eventually spun down at 12,000 rpm for 15 minutes at 4° C. Finally, the supernatant was transferred to the new microtubes and stored at −20° C. Protein concentration was measured using Bradford Assay. Serial concentrations 0.125; 0.25; 0.5 and 1 mg/ml of Bovine Serum Albumin (BSA) (Sigma Aldrich) were used as a standard. Samples were boiled at 90° C. for 5 minutes in SDS sample loading buffer.

[2] = target: T2, TcPINK1 (Tribolium castaneum, UniProt D6WMX4); test: PINK1 in vitro kinase assay with parkin or ubiquitin as substrates; assay type: biochemical; settings: increasing concentrations, max 100 μM; human parkin or ubiquitin as substrates
T2 construct: purchased MRC PPU Reagents and Services (University of Dundee, U.K.)
T2 sequence (D6WMX4 6-570): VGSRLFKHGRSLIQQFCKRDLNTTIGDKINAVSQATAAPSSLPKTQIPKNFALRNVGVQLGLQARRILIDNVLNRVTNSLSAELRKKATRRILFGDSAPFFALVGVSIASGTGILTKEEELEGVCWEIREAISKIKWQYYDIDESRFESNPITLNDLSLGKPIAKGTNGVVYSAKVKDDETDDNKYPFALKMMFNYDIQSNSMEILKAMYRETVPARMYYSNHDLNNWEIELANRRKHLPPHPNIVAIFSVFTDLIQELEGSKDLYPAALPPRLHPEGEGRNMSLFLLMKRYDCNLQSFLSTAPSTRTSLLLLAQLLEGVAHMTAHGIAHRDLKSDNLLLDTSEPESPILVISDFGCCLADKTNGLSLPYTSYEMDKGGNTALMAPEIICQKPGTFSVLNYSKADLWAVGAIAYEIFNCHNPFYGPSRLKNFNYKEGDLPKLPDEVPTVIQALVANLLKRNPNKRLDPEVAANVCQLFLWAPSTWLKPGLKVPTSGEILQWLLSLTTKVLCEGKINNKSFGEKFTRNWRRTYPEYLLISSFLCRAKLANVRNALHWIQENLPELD
Procedure: This assay was carried out by the MRC PPU Reagents and Services (University of Dundee, U.K.). The assay was conducted as follows: TcPINK1 (5-20mU diluted in 50 mM Tris pH 7.5, 0.1 mM EGTA, 1 mg/ml BSA, 0.1% mercaptoethanol) is assayed against GST PARK2 TV3 or Ubiquitin-His in a final volume of […] containing 50 mM Tris pH 7.5, 0.1 mM EDTA, 10 mM DTT, protein substrate (0.3 mg/ml of GST PARK2 TV3 or 1 mg/ml of Ubiquitin-His, 10 mM magnesium acetate and 0.1 mM [33P-γ-ATP](50-1000 cpm/pmole) in the presence of the relevant small molecule (serial dilution with the highest concentration being 100 μM) and incubated for 30 min at room temperature. Assays are stopped by addition of 5 μl of 0.5 M (3%) orthophosphoric acid and then harvested onto P81 Unifilter plates with a wash buffer of 50 mM orthophosphoric acid.
To examine this further, we ran in vitro kinase assays employing recombinant and constitutively active Tribolium castaneum PINK1 (TcPINK1) and either human parkin or ubiquitin as substrates in the presence of increasing concentrations (max 100 μM) of kinetin riboside, benzyladenosine 9c or its triphosphate derivative (FIG. 6). […]

[3] = system: Ub Ser65 phosphorylation; test: Immunofluorescence for Ub Ser65 phosphorylation in YFP-parkin transfected HeLa cells; assay type: cell-based; settings: immunofluorescence; for impact on ubiquitin phosphorylation, compound alone: 50 μM, 24 h, no niclosamide or CCCP
Procedure: Cells were seeded on PerkinElmer PhenoPlate 96-well plates, followed by treatment with compounds. Cells were fixed in chilled 4% PFA for 10 min followed by washes in PBS. […] Following PBS washes, cells were blocked using blocking buffer (PBS, 5% BSA, 0.1% Tween20) for 1 h at room temperature. Primary antibodies were diluted in blocking buffer and added to cells to be incubated overnight at 4° C. Cells were subsequently washed with PBS-T and the appropriate secondary antibodies (diluted in blocking buffer) were added for 2 h at room temperature in darkness. 10 μg/ml of Hoechst 33258 stain was added with secondary antibodies when required. Cells were again washed with PBS-T followed by addition of PBS with 0.02% sodium azide. Cells were then stored at 4° C. until ready for imaging. Primary antibodies used for immunofluorescence are as follows: Phospho-Ub Ser 65 (Sigma-Aldrich cat #ABS1513-1), TOM20 (Santa-Cruz cat #sc-17764). Secondary antibodies and stains used in immunofluorescence; Anti-IgG2a Alexa Fluor™ 546 (ThermoFisher cat #A21133) Anti-rabbit Alexa Fluor™ 647 (ThermoFisher cat #A21244), Hoechst 33258 stain (Sigma-Aldrich cat #B2883).
Confocal microscopy was performed using a Zeiss LSM800 w/Airyscan fluorescent microscope equipped with lasers emitting at 405 nm, 488 nm, 561 nm and 640 nm. All images were captured using a 40x oil immersion objective lens and processed using Zeiss ZEN software. Images were analysed and quantified using Columbus (PerkinElmer) and TIBCO Spotfire software.
First, HeLa cells transfected with YFP-parkin were either left untreated or treated with 50 μM kinetin riboside, nucleosides 9a and 9c for 24 h.

Row | SMILES | activation of PINK1 as judged by parkin Ser65 phosphorylation [1] | effect on TcPINK1 kinase activity (covalent inhibition) [2] | reduction in ubiquitin phosphorylation and parkin localisation compared with kinetin riboside ([3]; 50 μM 24 h, then 10 μM CCCP) | ubiquitin Ser65 phosphorylation after pre-treatment followed by CCCP, compared to CCCP alone ([3]; 50 μM 24 h, then 10 μM CCCP) | impact on ubiquitin phosphorylation, compound alone [3] | inhibition of ubiquitin phosphorylation by pre-treatment ([3]; YFP-parkin HeLa cells, 50 μM 24 h prior to 10 μM niclosamide or CCCP 1 h)
1 | OC[C@H]1O[C@@H](n2cnc3c(NCc4ccccc4)ncnc32)[C@H](O)[C@@H]1O [9c, (2R,3R,4S,5R)-2-(6-(benzylamino)-9H-purin-9-yl)-5-(hydroxymethyl)tetrahydrofuran-3,4-diol] | low level activation of PINK1 | unlikely to be PINK1 covalent inhibitors | appears stronger than that induced by kinetin riboside | significant reduction | did not have any impact | –
2 | OC[C@H]1O[C@@H](n2cnc3c(NCc4ccco4)ncnc32)[C@H](O)[C@@H]1O [kinetin riboside, N^6-(2-furanylmethyl) adenosine] | low level activation of PINK1 | unlikely to be PINK1 covalent inhibitors | – | inhibited | did not have any impact | inhibited ubiquitin phosphorylation
